Laboratory results as given in patent publication US20180141962A1, “AZACARBAZOLE BTK INHIBITORS” (MERCK SHARP & DOHME CORP., priority 2015, published 2018).

Molecular target: T1, BTK enzyme (recombinant full-length BTK, hBTK) (Homo sapiens, UniProt Q06187)
T1 construct: recombinant protein from baculovirus-transfected Sf9 cells: full-length BTK, 6HIS-tag cleaved; 6HIS (cleaved yes); made in house; host or cells: baculovirus-transfected Sf9 cells
Assay: Btk enzyme activity assay, LANCE TR-FRET
Assay type: biochemical
Conditions: 50 pM hBTK, 2 μM biotin-A5-peptide, 25 μM ATP; 60 minute compound & enzyme incubation; 120 minutes reaction; read-out: BTK binding potency IC50
Experimental: Btk Enzyme Activity Assay Methods
BTK enzymatic activity was determined with the LANCE (Lanthanide Chelate Excite) TR-FRET (lime-resolved fluorescence resonance energy transfer) assay. […] Phosphorylation reactions were allowed to proceed for 120 minutes. […] After 60 minutes incubation with detection reagents, reaction plates were read on a PerkinElmer EnVision plate reader using standard TR-FRET protocol. Briefly, excitation of donor molecules (Eu-chelate:anti-phospho-antibody) with a laser light source at 337 nm produces energy that can be transferred to Dylight-650 acceptor molecules if this donor:acceptor pair is within close proximity. Fluorescence intensity at both 665 nm (acceptor) and 615 nm (donor) are measured and a TR-FRET ratio calculated for each well (acceptor intensity/donor intensity). IC50 values were determined by 4 parameter robust fit of TR-FRET ratio values vs. (Log10) compound concentrations.

T1 sequence (Q06187 whole entry): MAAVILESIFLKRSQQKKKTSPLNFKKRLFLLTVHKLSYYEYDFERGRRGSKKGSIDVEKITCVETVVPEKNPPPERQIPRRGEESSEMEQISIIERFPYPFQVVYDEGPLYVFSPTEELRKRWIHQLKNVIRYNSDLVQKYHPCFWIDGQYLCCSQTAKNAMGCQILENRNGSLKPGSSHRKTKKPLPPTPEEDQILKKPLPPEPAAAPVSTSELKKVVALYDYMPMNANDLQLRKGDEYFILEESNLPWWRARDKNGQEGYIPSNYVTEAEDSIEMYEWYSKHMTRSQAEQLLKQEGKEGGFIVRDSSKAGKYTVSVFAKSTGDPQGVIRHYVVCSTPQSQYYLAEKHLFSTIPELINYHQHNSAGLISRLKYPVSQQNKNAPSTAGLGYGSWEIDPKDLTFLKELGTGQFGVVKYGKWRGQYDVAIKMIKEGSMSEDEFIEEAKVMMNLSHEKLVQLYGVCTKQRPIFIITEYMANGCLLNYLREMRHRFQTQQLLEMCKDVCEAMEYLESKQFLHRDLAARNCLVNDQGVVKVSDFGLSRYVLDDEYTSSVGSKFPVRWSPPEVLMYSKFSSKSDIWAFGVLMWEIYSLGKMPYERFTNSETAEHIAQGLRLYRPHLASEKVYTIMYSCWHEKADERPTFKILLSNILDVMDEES

`NC(=O)c1cnc(N2CCCC3(CCNC3=O)C2)c2c1[nH]c1cc(C3CCN(CC(=O)O)CC3)ccc12` (stereo not drawn) [Example 59, {4-[4-carbamoyl-1-(1-oxo-2,7-diazaspiro[4.5]dec-7-yl)-5H-pyrido[4,3-b]indol-7-yl]piperidin-1-yl}acetic acid] gave an IC50 of 1.6 nM.
In the case of `NC(=O)c1cnc(N2CCC[C@@]3(CCNC3=O)C2)c2c1[nH]c1cc(C3CCC(=O)NC3)ccc12` (stereo partly drawn) [Example 73, 1-[(5R)-1-oxo-2,7-diazaspiro[4.5]dec-7-yl]-7-(6-oxopiperidin-3-yl)-5H-pyrido[4,3-b]indole-4-carboxamide], the IC50 is reported as 0.74 nM.
With `CNC(=O)N1CCC(c2ccc3[nH]c4c(C(N)=O)cnc(N5CCCC6(CCNC6=O)C5)c4c3c2)CC1` (stereo not drawn) [Example 47, 8-[1-(methylcarbamoyl)piperidin-4-yl]-1-(1-oxo-2,7-diazaspiro[4.5]dec-7-yl)-5H-pyrido[4,3-b]indole-4-carboxamide] the IC50 was 72.6 nM.
In the case of `COC(=O)CC1CCC(c2ccc3c(c2)[nH]c2c(C(N)=O)cnc(N4CCC[C@@]5(CCN(C)C5=O)C4)c23)CC1` (stereo partly drawn) [Example 81, methyl (4-{4-carbamoyl-1-[(5R)-2-methyl-1-oxo-2,7-diazaspiro[4.5]dec-7-yl]-5H-pyrido[4,3-b]indol-7-yl}cyclohexyl)acetate], the IC50 is reported as 5.5 nM.
`CC(=O)N1CCC(c2ccc3[nH]c4c(C(N)=O)cnc(N5CCCC6(CCNC6=O)C5)c4c3c2)CC1` (stereo not drawn) [Example 61, 8-(1-acetylpiperidin-4-yl)-1-(1-oxo-2,7-diazaspiro[4.5]dec-7-yl)-5H-pyrido[4,3-b]indole-4-carboxamide] showed an IC50 of 81.8 nM.
Molecule `NC(=O)c1cnc(N2CC3(CCNC3)C2)c2c1[nH]c1ccccc12` [Example 26, 1-(2,6-diazaspiro[3.4]oct-2-yl)-5H-pyrido[4,3-b]indole-4-carboxamide] has an IC50 of 160 nM.
In the case of `CCN1CCC(c2ccc3[nH]c4c(C(N)=O)cnc(N5CCCC6(CCNC6=O)C5)c4c3c2)CC1` (stereo not drawn) [Example 49, 8-(1-ethylpiperidin-4-yl)-1-(1-oxo-2,7-diazaspiro[4.5]dec-7-yl)-5H-pyrido[4,3-b]indole-4-carboxamide], the IC50 is reported as 87.3 nM.
Molecule `CC(=O)N1CCC2(C1)CN(c1ncc(C(N)=O)c3[nH]c4ccccc4c13)C2` [Example 27, 1-(6-acetyl-2,6-diazaspiro[3.4]oct-2-yl)-5H-pyrido[4,3-b]indole-4-carboxamide] has an IC50 of 232 nM.
Molecule `NC(=O)c1cnc(N2CCC[C@]3(C2)C(=O)NC[C@@H]3O)c2c1[nH]c1ccccc12` [Example 24, 1-[(4R,5R)-4-hydroxy-1-oxo-2,7-diazaspiro[4.5]dec-7-yl]-5H-pyrido[4,3-b]indole-4-carboxamide] has an IC50 of 9 nM.
Work on `CN1CC(CO)C2(CCCN(c3ncc(C(N)=O)c4[nH]c5ccccc5c34)C2)C1=O` (single isomer, unassigned) [Example 90, cis-1-(4-(hydroxymethyl)-2-methyl-1-oxo-2,7-diazaspiro[4.5]decan-7-yl)-5H-pyrido[4,3-b]indole-4-carboxamide] yielded an IC50 of 115 nM.
`NC(=O)c1cnc(N2CCCC3(CCN(c4ccc(F)cc4)C3=O)C2)c2c1[nH]c1ccccc12` (stereo not drawn) [Example 32, 1-[2-(4-fluorophenyl)-1-oxo-2,7-diazaspiro[4.5]dec-7-yl]-5H-pyrido[4,3-b]indole-4-carboxamide] showed an IC50 of 244 nM.
`NC(=O)c1cnc(N2CCCC3(C2)C(=O)NCC3O)c2c1[nH]c1ccccc12` (mixture of isomers) [Example 86, 1-(4-hydroxy-1-oxo-2,7-diazaspiro[4.5]decan-7-yl)-5H-pyrido[4,3-b]indole-4-carboxamide] was tested, and the IC50 was 170 nM.
In the case of `NC(=O)c1cnc(N2CCCC3(CCCN(c4ccc(F)cc4)C3=O)C2)c2c1[nH]c1ccccc12` (stereo not drawn) [Example 4, 1-[8-(4-fluorophenyl)-7-oxo-2,8-diazaspiro[5.5]undec-2-yl]-5H-pyrido[4,3-b]indole-4-carboxamide], the IC50 is reported as 17 nM.
In the case of `CC(C)(C)OC(=O)N1CC2(CCN(c3ncc(C(N)=O)c4[nH]c5ccccc5c34)CC2)C1` [Example 16, tert-butyl 7-(4-carbamoyl-5H-pyrido[4,3-b]indol-1-yl)-2,7-diazaspiro[3.5]nonane-2-carboxylate], the IC50 is reported as 98.7 nM.
Work on `CC(=O)N1CCC(c2ccc3c(c2)[nH]c2c(C(N)=O)cnc(N4CCCC5(CCNC5=O)C4)c23)CC1` (stereo not drawn) [Example 58, 7-(1-acetylpiperidin-4-yl)-1-(1-oxo-2,7-diazaspiro[4.5]dec-7-yl)-5H-pyrido[4,3-b]indole-4-carboxamide] yielded an IC50 of 1.4 nM.
Work on `NC(=O)c1cnc(N2CCC3(CCNCC3)C2)c2c1[nH]c1ccccc12` [Example 15, 1-(2,8-diazaspiro[4.5]dec-2-yl)-5H-pyrido[4,3-b]indole-4-carboxamide] yielded an IC50 of 37.4 nM.
`NC(=O)c1cnc(N2CCC3(CC2)CNC3)c2c1[nH]c1ccccc12` [Example 19, 1-(2,7-diazaspiro[3.5]non-7-yl)-5H-pyrido[4,3-b]indole-4-carboxamide] showed an IC50 of 22 nM.
`NC(=O)c1cnc(N2CCCC3(C2)NCCNC3=O)c2c1[nH]c1ccccc12` (stereo not drawn) [Example 87, 1-(5-oxo-1,4,8-triazaspiro[5.5]undecan-8-yl)-5H-pyrido[4,3-b]indole-4-carboxamide] was tested, and the IC50 was 82.8 nM.
In the case of `NC(=O)c1cnc(N2CCCC3(CCNC3=O)C2)c2c1[nH]c1ccc(C3CCNCC3)cc12` (stereo not drawn) [Example 45, 1-(1-oxo-2,7-diazaspiro[4.5]dec-7-yl)-8-piperidin-4-yl-5H-pyrido[4,3-b]indole-4-carboxamide], the IC50 is reported as 204 nM.
Work on `CC(C)(O)CN1CCC(c2ccc3[nH]c4c(C(N)=O)cnc(N5CCCC6(CCNC6=O)C5)c4c3c2)CC1` (stereo not drawn) [Example 62, 8-[1-(2-hydroxy-2-methylpropyl)piperidin-4-yl]-1-(1-oxo-2,7-diazaspiro[4.5]dec-7-yl)-5H-pyrido[4,3-b]indole-4-carboxamide] yielded an IC50 of 59.7 nM.
Work on `CC(C)N1CCC(c2ccc3c(c2)[nH]c2c(C(N)=O)cnc(N4CCC[C@@]5(CCN(C)C5=O)C4)c23)CC1` [Example 76, 7-[1-(1-methylethyl)piperidin-4-yl]-1-[(5R)-2-methyl-1-oxo-2,7-diazaspiro[4.5]dec-7-yl]-5H-pyrido[4,3-b]indole-4-carboxamide] yielded an IC50 of 0.64 nM.
In the case of `COC(=O)CCN1CCCC2(CCCN(c3ncc(C(N)=O)c4[nH]c5ccccc5c34)C2)C1=O` (stereo not drawn) [Example 31, methyl 3-[8-(4-carbamoyl-5H-pyrido[4,3-b]indol-1-yl)-1-oxo-2,8-diazaspiro[5.5]undec-2-yl]propanoate], the IC50 is reported as 96.8 nM.
With `CC(C)N1CCC(c2ccc3[nH]c4c(C(N)=O)cnc(N5CCCC6(CCNC6=O)C5)c4c3c2)CC1` (stereo not drawn) [Example 50, 8-[1-(1-methylethyl)piperidin-4-yl]-1-(1-oxo-2,7-diazaspiro[4.5]dec-7-yl)-5H-pyrido[4,3-b]indole-4-carboxamide] the IC50 was 58.7 nM.
`O=C(NO)c1cnc(N2CCCC3(CCNC3=O)C2)c2c1[nH]c1ccccc12` (stereo not drawn) [Example 9, N-hydroxy-1-(1-oxo-2,7-diazaspiro[4.5]dec-7-yl)-5H-pyrido[4,3-b]indole-4-carboxamide] gave an IC50 of 384 nM.
In the case of `CS(=O)(=O)N1CCC(c2ccc3c(c2)[nH]c2c(C(N)=O)cnc(N4CCCC5(CCNC5=O)C4)c23)CC1` (stereo not drawn) [Example 57, 7-[1-(methylsulfonyl)piperidin-4-yl]-1-(1-oxo-2,7-diazaspiro[4.5]dec-7-yl)-5H-pyrido[4,3-b]indole-4-carboxamide], the IC50 is reported as 2.1 nM.
Work on `CC(=O)N1CC2(CCN(c3ncc(C(N)=O)c4[nH]c5ccccc5c34)CC2)C1` [Example 20, 1-(2-acetyl-2,7-diazaspiro[3.5]non-7-yl)-5H-pyrido[4,3-b]indole-4-carboxamide] yielded an IC50 of 58.6 nM.
For `NC(=O)c1cnc(N2CCCC3(CCNC3=O)C2)c2c1[nH]c1cc(C3CCNCC3)ccc12` (stereo in doubt) [Example 64, 1-[(5R)-1-oxo-2,7-diazaspiro[4.5]dec-7-yl]-7-piperidin-4-yl-5H-pyrido[4,3-b]indole-4-carboxamide], the IC50 was 0.63 nM.
With `COc1ccc(-c2ccc3c(c2)[nH]c2c(C(N)=O)cnc(N4CCC[C@@]5(CCNC5=O)C4)c23)cn1` [Example 67, 7-(6-methoxypyridin-3-yl)-1-[(5R)-1-oxo-2,7-diazaspiro[4.5]dec-7-yl]-5H-pyrido[4,3-b]indole-4-carboxamide] the IC50 was 13.9 nM.
With `CC(C)N1CCC(c2ccc3c(c2)[nH]c2c(C(N)=O)cnc(N4CCCC5(CCNC5=O)C4)c23)CC1` (stereo not drawn) [Example 52, 7-[1-(1-methylethyl)piperidin-4-yl]-1-(1-oxo-2,7-diazaspiro[4.5]dec-7-yl)-5H-pyrido[4,3-b]indole-4-carboxamide] the IC50 was 0.96 nM.
Molecule `CC(=O)N1CC2(CCCN(c3ncc(C(N)=O)c4[nH]c5ccccc5c34)C2)C1` [Example 29, 1-(2-acetyl-2,6-diazaspiro[3.5]non-6-yl)-5H-pyrido[4,3-b]indole-4-carboxamide] has an IC50 of 271 nM.
`NC(=O)c1cnc(N2CCC[C@]3(C2)C(=O)NC[C@@H]3c2ccccc2)c2c1[nH]c1ccccc12` (single isomer, unassigned) [Example 89, 1-[(trans)-1-oxo-4-phenyl-2,7-diazaspiro[4.5]dec-7-yl]-5H-pyrido[4,3-b]indole-4-carboxamide] gave an IC50 of 669 nM.
Molecule `NC(=O)c1cnc(N2CCCC3(CCNC(=O)C3)C2)c2c1[nH]c1ccccc12` (stereo not drawn) [Example 37, 1-(8-oxo-2,9-diazaspiro[5.5]undec-2-yl)-5H-pyrido[4,3-b]indole-4-carboxamide] has an IC50 of 46.4 nM.
Work on `CC(C)(O)CN1CCC(c2ccc3c(c2)[nH]c2c(C(N)=O)cnc(N4CCC[C@@]5(CCNC5=O)C4)c23)CC1` [Example 72, 7-[1-(2-hydroxy-2-methylpropyl)piperidin-4-yl]-1-[(5R)-1-oxo-2,7-diazaspiro[4.5]dec-7-yl]-5H-pyrido[4,3-b]indole-4-carboxamide] yielded an IC50 of 0.63 nM.
